How the values were obtained:
mice = assay: Initial topical test of 4% w/v formulation on mice; type: in vivo; settings: 4% w/v cholecalciferol in absolute alcohol, 0.5 ml per animal
Description: (§1) A formulation of the present invention was initially prepared and tested on mice and laboratory rats to determine the viability of the invention. The formulation contained cholecalciferol in an amount of 4% w/v and absolute alcohol. […] These studies are described in the following examples.

laboratory rats = assay: Initial topical test of 4% w/v formulation on laboratory rats; type: in vivo; settings: 4% w/v cholecalciferol in absolute alcohol, 0.5 ml per animal
Description: as §1

Bush Rat (Rattus rattus) = assay: Dermal application of cholecalciferol, Example 1 study (Table 1); type: in vivo; settings: 1.0 ml of 20% cholecalciferol in absolute alcohol, topical; animal weight unknown
Experimental: (§2) Two formulations of the invention were prepared both containing cholecalciferol in solution with absolute alcohol. One of the formulations contained cholecalciferol in an amount of 20% w/v. The other formulation contained cholecalciferol in an amount of 40% w/v. The formulation was topically applied to several animal pest species in varying amounts and the animals were studied.

Ferret = assay: as above; type: in vivo; settings: 2.0 ml of 40% cholecalciferol in absolute alcohol, topical; animal 902 g
Experimental: as §2

Hedgehog = assay: as above; type: in vivo; settings: 1.5 ml of 20% cholecalciferol in absolute alcohol, topical; animal 515 g
Experimental: as §2

[1] = test system: Lab Rat (Rattus norvegicus); assay: as above; type: in vivo; settings: 0.5 ml of 20% cholecalciferol in absolute alcohol, topical; animal weight unknown
Experimental: as §2

Rabbit = assay: as above; type: in vivo; settings: 2.0 ml of 20% cholecalciferol in absolute alcohol, topical; animal 2.6 kg
Experimental: as §2

Weasel = assay: as above; type: in vivo; settings: 1.5 ml of 40% cholecalciferol in absolute alcohol, topical
Experimental: as §2

stoats = assay: Dermal application of test solution to wild-caught stoats (Example 2 study); type: in vivo
Experimental: A test solution of approximately 100 ml was formulated, containing Vitamin D3 (cholecalciferol) resin in the solvent absolute alcohol. The concentration of cholecalciferol in the solution was about 40% w/v. The formulation was designed to kill stoats.
Wild-caught adult stoats (three male and three female) were housed in outdoor cages (60×150×90 cm). Each stoat was provided with a nest box (40×33×15 cm) containing shredded paper as nesting material. Stoats were fed a rotation of, dead day-old chicks, chicken pet mince and mutton/beef pet mince in the afternoon and had free access to water.
They were acclimatised to captivity for at least 5 months prior to being used in the trial. The stoats were lightly anaesthetised with isoflurane, weighed and then had 1.5 ml of the test solution applied to their skin and fur, using a syringe to deliver a line of solution along the spine from the nape to the base of the tail. This was a ‘high exposure’ simulation of the manner in which the delivery system would apply a toxic solution to the fur and skin of stoats.
After application of the solution, the stoats were placed into large nest boxes which were lined with paper but without bedding material, to facilitate observation. Dark Perspex lids were kept on the nest boxes to minimise disturbance of stoats by human observers. The stoats were monitored constantly through recovery from anaesthesia and then for the next three hours to record their responses to the solution on their coats and document any behaviour associated with its presence e.g. grooming, rubbing or rolling. After the three hour observation period in the boxes, stoats were returned to their outdoor cages with nesting material, food and water freely available. […] After this, observations of each stoat were recorded once daily, noting any signs of illness that are associated with cholecalciferol poisoning, e.g. stop feeding, significant body weight loss. Where any signs of illness occurred, the monitoring was to be increased to twice daily (morning and afternoon).
Feed intakes of the stoats were visually estimated for at least three days prior to dosing, i.e. ration all eaten, half eaten, quarter eaten, none eaten. Food intake was similarly noted daily after dosing through until death or 21 days (whichever occurred first). Stoats were weighed at least once a week after dosing, through to death or 21 days (which ever occurred first). Any stoats that died during the 21 day observation were to be retained for necropsy. Typical signs of poisoning (inappetance combined with significant body weight loss) were used as an alternative endpoint for the trial, with a weight loss greater than 25% of bodyweight at dosing triggering euthanasia. Stoats that survived the 21 day observation were to be euthanized.

[2] = Cholecalciferol concentration of test solution by normal phase liquid chromatography (stability of formulation); type: physicochemical
Experimental: To confirm the cholecalciferol concentration present and enable accurate exposure calculations when the test solution was applied to the stoats, a sub-sample (approximately 20 ml) of this solution was taken for analysis. Cholecalciferol concentration was determined by taking a sample of liquid which was warmed, mixed and 0.2 g weighed into a volumetric flask 30 ml of toluene was added, and this solution was sonicated without heating and made up to volume. The solution was diluted with hexane/isopropyl alcohol, filtered and analysed against an internal standard by normal phase liquid chromatography.
The test solution was analysed as containing 30% cholecalciferol with an uncertainty of 5%. This was lower than the nominal 40% cholecalciferol in the solution indicated by the analysis carried out the day after the solution was prepared. The assay was carried out on a sub-sample of solution taken 7 days after preparation, and also following the extraction of 6×1.5 ml aliquots of the solution for application to stoats.
This may mostly have occurred on exposure to air when aliquots of solution were drawn from the container for application to the stoats. Cholecalciferol preparations are sensitive to light and exposure to air, with oxidation and inactivation occurring over a few days in the presence of moist air. However, it is noted that even at a 30% concentration, the solution contained sufficient cholecalciferol to deliver an effective lethal dose to all six stoats in 1.5 ml.

weasels = assay: Proof of concept trial on wild weasels (Example 3 study); type: in vivo
Description: Three wild weasels were caught for a proof of concept trial to determine if the formulation of the invention would be effective as a humane method of killing these pests. The weasels were caged separately in individual waterproof, roofed, wired enclosures of approximately 1 m^2. The animals were fed on raw meat, by simply placing the meat on a wire hooked into the side of the cages. In eating the animals simply pulled on and chewed the meat. Drinking water was available. Within each enclosure was a small box of 25×25 cm with a mesh roof. A vertical sliding door could be removed to provide an entrance to the enclosure and the enclosure was half filled with nesting material of hay. It was observed that the animals covered themselves in the hay and made pathways through it.
Each of the animals was then treated with a formulation comprising 32% cholecalciferol (resin form) in solution with the glycol ether, DGMEE, and observations were made.
The first animal, a male weasel weighing 157 grams, was treated by application of 1 ml of the formulation using a syringe to the back of the animal. This weasel died within 44 hours of application of the formulation.
The second animal, a female weasel weighing 94 grams, was treated using an eradication apparatus as described above. The electronically activated apparatus was placed into the cage of the animal. The apparatus comprised of a tunnel, including a sensing means comprising two pairs of sensors, and a tracking card to record the footprints of the weasel to establish that the animal had passed through the tunnel. An automatic dispensing means was operatively connected to the tunnel, so that when the weasel passed through the tunnel and the two pairs of sensors were covered ,simultaneously, the dispensing , means was automatically activated to deliver the formulation to the animal. In this manner, approximately 0.9 ml of the cholecalciferol formulation was applied to the back of the weasel as it passed through the tunnel of the apparatus. It was observed that some of the formulation was present on the tracking card so the weasel had not received the total volume of the formulation. The weasel died approximately 50 hours after receiving the formulation.
The third animal, a male weasel weighing 54 grams was treated by squirting approximately 1 ml of the formulation onto the back of the animal using a hand held syringe. This weasel died within about 39 hours of application of the formulation.

Rattus rattus (bush rat) = assay: Topical administration to live captured bush rats (Example 4 study); type: in vivo
Experimental: Three animals of the species Rattus rattus (also known as the bush rat) were live captured. They were placed in separate enclosures with on demand food and water supplies, and nesting material of dry hay. After 14 days of acclimatization to these conditions, the animals were each treated with a formulation comprising a solution of 33% cholecalciferol (resin form) in the glycol ether, DGMEE. Each animal was given a dose of about 3 ml of the formulation by topical administration to the back of the animal using a calibrated syringe. Each of the animals died within six days of receiving the formulation. The first rat, a male weighing 122 grams, weighed 106 grams at death. The second rat, a female weighing 108 grams, weighed 98 grams at death. The third rat, a male weighing 97 grams, weighed 90 grams at death.

[3] = Stoat Female 407, 193 g at dosing, 2331 mg/kg dermal
[4] = Stoat Male 391, 235 g at dosing, 1914 mg/kg dermal
[5] = Stoat Male 415, 382 g at dosing, 1178 mg/kg dermal
[6] = Stoat Male 419, 359 g at dosing, 1253 mg/kg dermal

Structure (SMILES): C=C1CC[C@H](O)C/C1=C/C=C1\CCC[C@]2(C)[C@@H]([C@H](C)CCCC(C)C)CC[C@@H]12 [cholecalciferol]
- death of the animal (mice): death of the animal occurred within a reasonably short time frame
- death of the animal (laboratory rats): death of the animal occurred within a reasonably short time frame
- Observations: time to death (Bush Rat (Rattus rattus)): within 40 hours
- Observations: time to death (Ferret): within 48 hours
- Observations: time to death (Hedgehog): within 25 hours
- Observations: time to death [1]: within 72 hours
- Observations: time to death (Rabbit): within 2 days
- Observations: time to death (Weasel; animal 116 g): within 43 hours
- Observations: time to death (Weasel; animal 139 g): within 36 hours
- % weight loss at death (stoats; Stoat Female 407, 2331 mg/kg dermal): 46%
- Fate (days after dosing) (stoats; Stoat Female 407, 193 g at dosing, 1.5 ml test solution, estimated exposure 2331 mg/kg): died (12)
- Weight at day 7 (stoats; [3]): 151 g
- Weight at day 12 (stoats; [3]): 112 g
- % weight loss at death (stoats; Stoat Female 413, 2486 mg/kg dermal): 44%
- Fate (days after dosing) (stoats; Stoat Female 413, 181 g at dosing, 1.5 ml test solution, estimated exposure 2486 mg/kg): died (11)
- Weight at day 7 (stoats; Stoat Female 413, 181 g at dosing, 2486 mg/kg dermal): 120 g
- % weight loss at death (stoats; Stoat Female 414, 2205 mg/kg dermal): 13%
- Fate (days after dosing) (stoats; Stoat Female 414, 204 g at dosing, 1.5 ml test solution, estimated exposure 2205 mg/kg): died (4)
- % weight loss at death (stoats; Stoat Male 391, 1914 mg/kg dermal): 30%
- Fate (days after dosing) (stoats; Stoat Male 391, 235 g at dosing, 1.5 ml test solution, estimated exposure 1914 mg/kg): euthanized (12)
- Weight at day 7 (stoats; [4]): 188 g
- Weight at day 12 (stoats; [4]): 166 g
- % weight loss at death (stoats; Stoat Male 415, 1178 mg/kg dermal): 36%
- Weight at day 7 (stoats; [5]): 296 g
- Weight at day 12 (stoats; [5]): 254 g
- Fate (days after dosing) (stoats; Stoat Male 415, 382 g at dosing, 1.5 ml test solution (nominal 40%, assayed 30%, absolute alcohol), estimated exposure 1178 mg/kg): euthanized (12)
- % weight loss at death (stoats; Stoat Male 419, 1253 mg/kg dermal): 37%
- Weight at day 7 (stoats; [6]): 277 g
- Weight at day 12 (stoats; [6]): 253 g
- Fate (days after dosing) (stoats; Stoat Male 419, 359 g at dosing, 1.5 ml test solution, estimated exposure 1253 mg/kg): euthanized (12)
- inappetance (stop feed effect) (stoats; from the first night after dosing, generally eating less than half of rations each day): All six stoats showed inappetance
- effective lethal dermal exposure (in excess of or equal to a dermal LD99 value) (stoats; lower end of exposure range in stoats, test solution in absolute alcohol): 1178 mg/kg
- cages with vomitus present (stoats; morning after return to outdoor cages, 1.5 ml test solution): three of the 6
- mortality (number of stoats) (stoats; six stoats, over 12 days after dosing, 1.5 ml test solution): three
- necropsy findings (stoats; stoats that died): no gross evidence of calcification/mineralisation or lung damage
- time of euthanasia after dosing (weight loss endpoint), male stoats (stoats; three male stoats, 1.5 ml test solution, 1178-1914 mg/kg): 12 days
- cholecalciferol concentration of test solution (nominal) ([2]; analysis carried out the day after the solution was prepared, absolute alcohol): 40%
- change of cholecalciferol concentration in test solution ([2]; during the 7 days from preparation to application): slight decline
- cholecalciferol concentration of test solution ([2]; sub-sample taken 7 days after preparation, after extraction of aliquots, uncertainty of 5%, absolute alcohol): 30%
- appetite after application (weasels; female weasel 94 grams, approximately 0.9 ml of 32% cholecalciferol in DGMEE): lost its appetite
- time to death (weasels; female weasel 94 grams, approximately 0.9 ml of 32% cholecalciferol in DGMEE via eradication apparatus, not total volume received): approximately 50 hours
- time to death (weasels; male weasel 54 grams, approximately 1 ml of 32% cholecalciferol in DGMEE by hand held syringe): ≤ 39 h
- time to death (weasels; male weasel 157 grams, 1 ml of 32% cholecalciferol (resin) in DGMEE by syringe to the back): ≤ 44 h
- food consumption after application (weasels; male weasel 157 grams, 1 ml of 32% cholecalciferol in DGMEE): ate only a small quantity of what it had previously been consuming
- weight at death (Rattus rattus (bush rat); first rat, male weighing 122 grams, about 3 ml of 33% cholecalciferol in DGMEE): 106 grams
- hair loss at application site (Rattus rattus (bush rat); over the first few days of treatment, about 3 ml of 33% cholecalciferol in DGMEE): hair loss was observed on all of the animals
- weight at death (Rattus rattus (bush rat); second rat, female weighing 108 grams, about 3 ml of 33% cholecalciferol in DGMEE): 98 grams
- weight at death (Rattus rattus (bush rat); third rat, male weighing 97 grams, about 3 ml of 33% cholecalciferol in DGMEE): 90 grams
- time to death (Rattus rattus (bush rat); three bush rats, about 3 ml of 33% cholecalciferol (resin) in DGMEE, topical to the back): six
